According to PubChem BioAssay (NCI):
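Step 1: Grow cells in 96-well plates. Step 2: Expose to compound for 48 hours at 5 concentrations. Step 3: Interpolate endpoints linearly; if unreached, use highest concentration. The concentration for 50% growth inhibition is given as GI50. TGI: concentration producing complete growth inhibition.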

What was measured:
Experiment in all cases: inhibition of tumour cell growth, NCI panel, 48 h
SK-OV-3 ovarian = system: SK-OV-3 ovarian
MCF7 breast = system: MCF7 breast
OVCAR-8 ovarian = system: OVCAR-8 ovarian
OVCAR-5 ovarian = system: OVCAR-5 ovarian
UACC-257 melanoma = system: UACC-257 melanoma
OVCAR-3 ovarian = system: OVCAR-3 ovarian
LOX IMVI melanoma = system: LOX IMVI melanoma
SK-MEL-2 melanoma = system: SK-MEL-2 melanoma
EKVX NSCLC = system: EKVX NSCLC
CCRF-CEM leukemia = system: CCRF-CEM leukemia
A549 NSCLC = system: A549 NSCLC
RPMI-8226 leukemia = system: RPMI-8226 leukemia
PC-3 prostate = system: PC-3 prostate
ACHN renal = system: ACHN renal
MDA-MB-435 = system: MDA-MB-435
SK-MEL-5 melanoma = system: SK-MEL-5 melanoma
HL-60(TB) leukemia = system: HL-60(TB) leukemia
786-0 renal = system: 786-0 renal
NCI-H23 lung = system: NCI-H23 lung
HOP-92 NSCLC = system: HOP-92 NSCLC
RXF 393 renal = system: RXF 393 renal
MDA-MB-231 breast = system: MDA-MB-231 breast
UO-31 renal = system: UO-31 renal
HCT-116 colon = system: HCT-116 colon
HS 578T breast = system: HS 578T breast
SF-268 CNS = system: SF-268 CNS
COLO 205 colon = system: COLO 205 colon
M14 melanoma = system: M14 melanoma
NCI-H522 lung = system: NCI-H522 lung
NCI/ADR-RES ovarian = system: NCI/ADR-RES ovarian
SNB-75 CNS = system: SNB-75 CNS
SNB-19 CNS = system: SNB-19 CNS
NCI-H460 lung = system: NCI-H460 lung
HT29 colon = system: HT29 colon
IGROV1 ovarian = system: IGROV1 ovarian
NCI-H226 lung = system: NCI-H226 lung
HCT-15 colon = system: HCT-15 colon
OVCAR-4 ovarian = system: OVCAR-4 ovarian
MOLT-4 leukemia = system: MOLT-4 leukemia
DU-145 prostate = system: DU-145 prostate
SF-295 CNS = system: SF-295 CNS
SF-539 CNS = system: SF-539 CNS
SR leukemia = system: SR leukemia
TK-10 renal = system: TK-10 renal
HCC-2998 colon = system: HCC-2998 colon
U251 CNS = system: U251 CNS
MALME-3M melanoma = system: MALME-3M melanoma
A498 renal = system: A498 renal
CAKI-1 renal = system: CAKI-1 renal
SK-MEL-28 melanoma = system: SK-MEL-28 melanoma
HOP-62 NSCLC = system: HOP-62 NSCLC
SN12C renal = system: SN12C renal
UACC-62 melanoma = system: UACC-62 melanoma
SW-620 colon = system: SW-620 colon
BT-549 breast = system: BT-549 breast
K-562 leukemia = system: K-562 leukemia

Structure (SMILES): COc1cc2c(cc1O)CC[C@@H]1[C@@H]2CC[C@]2(C)[C@@H](OCCCN(C)C)CC[C@@H]12
- GI50 (SK-OV-3 ovarian): 0.198 µM
- TGI (SK-OV-3 ovarian): 0.675 µM
- GI50 (MCF7 breast): 0.148 µM
- TGI (MCF7 breast): 0.439 µM
- GI50 (OVCAR-8 ovarian): 0.196 µM
- TGI (OVCAR-8 ovarian): 0.733 µM
- GI50 (OVCAR-5 ovarian): 0.296 µM
- TGI (OVCAR-5 ovarian): 1.14 µM
- GI50 (UACC-257 melanoma): 0.104 µM
- TGI (UACC-257 melanoma): 0.206 µM
- GI50 (OVCAR-3 ovarian): 0.155 µM
- TGI (OVCAR-3 ovarian): 0.543 µM
- GI50 (LOX IMVI melanoma): 0.0906 µM
- TGI (LOX IMVI melanoma): 0.173 µM
- GI50 (SK-MEL-2 melanoma): 0.0769 µM
- TGI (SK-MEL-2 melanoma): 0.198 µM
- GI50 (EKVX NSCLC): 0.208 µM
- TGI (EKVX NSCLC): 0.958 µM
- GI50 (CCRF-CEM leukemia): 0.178 µM
- TGI (CCRF-CEM leukemia): 0.556 µM
- GI50 (A549 NSCLC): 0.165 µM
- TGI (A549 NSCLC): 0.65 µM
- GI50 (RPMI-8226 leukemia): 0.126 µM
- TGI (RPMI-8226 leukemia): 0.301 µM
- GI50 (PC-3 prostate): 0.183 µM
- TGI (PC-3 prostate): 0.748 µM
- GI50 (ACHN renal): 0.164 µM
- TGI (ACHN renal): 0.527 µM
- GI50 (MDA-MB-435): 0.0899 µM
- TGI (MDA-MB-435): 0.182 µM
- GI50 (SK-MEL-5 melanoma): 0.0833 µM
- TGI (SK-MEL-5 melanoma): 0.154 µM
- GI50 (HL-60(TB) leukemia): 0.0968 µM
- TGI (HL-60(TB) leukemia): 0.203 µM
- GI50 (786-0 renal): 0.0905 µM
- TGI (786-0 renal): 0.201 µM
- GI50 (NCI-H23 lung): 0.119 µM
- TGI (NCI-H23 lung): 0.552 µM
- GI50 (HOP-92 NSCLC): 0.112 µM
- TGI (HOP-92 NSCLC): 0.473 µM
- GI50 (RXF 393 renal): 0.0889 µM
- TGI (RXF 393 renal): 0.226 µM
- GI50 (MDA-MB-231 breast): 0.104 µM
- TGI (MDA-MB-231 breast): 0.219 µM
- GI50 (UO-31 renal): 0.224 µM
- TGI (UO-31 renal): 0.86 µM
- GI50 (HCT-116 colon): 0.0981 µM
- TGI (HCT-116 colon): 0.381 µM
- GI50 (HS 578T breast): 0.21 µM
- TGI (HS 578T breast): 1.19 µM
- GI50 (SF-268 CNS): 0.182 µM
- TGI (SF-268 CNS): 0.801 µM
- GI50 (COLO 205 colon): 0.268 µM
- TGI (COLO 205 colon): 1.03 µM
- GI50 (M14 melanoma): 0.0933 µM
- TGI (M14 melanoma): 0.19 µM
- GI50 (NCI-H522 lung): 0.0999 µM
- TGI (NCI-H522 lung): 0.248 µM
- GI50 (NCI/ADR-RES ovarian): 0.133 µM
- TGI (NCI/ADR-RES ovarian): 0.44 µM
- GI50 (SNB-75 CNS): 0.0768 µM
- TGI (SNB-75 CNS): 0.273 µM
- GI50 (SNB-19 CNS): 0.303 µM
- TGI (SNB-19 CNS): 1.06 µM
- GI50 (NCI-H460 lung): 0.163 µM
- TGI (NCI-H460 lung): 0.55 µM
- GI50 (HT29 colon): 0.0969 µM
- TGI (HT29 colon): 0.233 µM
- GI50 (IGROV1 ovarian): 0.523 µM
- TGI (IGROV1 ovarian): 1.43 µM
- GI50 (NCI-H226 lung): 0.617 µM
- TGI (NCI-H226 lung): 1.57 µM
- GI50 (HCT-15 colon): 0.125 µM
- TGI (HCT-15 colon): 0.558 µM
- GI50 (OVCAR-4 ovarian): 0.18 µM
- TGI (OVCAR-4 ovarian): 0.871 µM
- GI50 (MOLT-4 leukemia): 0.145 µM
- TGI (MOLT-4 leukemia): 0.555 µM
- GI50 (DU-145 prostate): 0.161 µM
- TGI (DU-145 prostate): 0.603 µM
- GI50 (SF-295 CNS): 0.098 µM
- TGI (SF-295 CNS): 0.208 µM
- GI50 (SF-539 CNS): 0.0867 µM
- TGI (SF-539 CNS): 0.172 µM
- GI50 (SR leukemia): 0.12 µM
- TGI (SR leukemia): 0.39 µM
- GI50 (TK-10 renal): 0.154 µM
- TGI (TK-10 renal): 0.496 µM
- GI50 (HCC-2998 colon): 0.13 µM
- TGI (HCC-2998 colon): 0.346 µM
- GI50 (U251 CNS): 0.126 µM
- TGI (U251 CNS): 0.334 µM
- GI50 (MALME-3M melanoma): 0.0902 µM
- TGI (MALME-3M melanoma): 0.194 µM
- GI50 (A498 renal): 0.278 µM
- TGI (A498 renal): 0.901 µM
- GI50 (CAKI-1 renal): 0.271 µM
- TGI (CAKI-1 renal): 0.904 µM
- GI50 (SK-MEL-28 melanoma): 0.102 µM
- TGI (SK-MEL-28 melanoma): 0.243 µM
- GI50 (HOP-62 NSCLC): 0.182 µM
- TGI (HOP-62 NSCLC): 0.728 µM
- GI50 (SN12C renal): 0.304 µM
- TGI (SN12C renal): 1.08 µM
- GI50 (UACC-62 melanoma): 0.11 µM
- TGI (UACC-62 melanoma): 0.269 µM
- GI50 (SW-620 colon): 0.16 µM
- TGI (SW-620 colon): 0.513 µM
- GI50 (BT-549 breast): 0.116 µM
- TGI (BT-549 breast): 0.394 µM
- GI50 (K-562 leukemia): 0.1 µM
- TGI (K-562 leukemia): 0.331 µM
